Measured values as given in patent US6495557B1, “Condensed thienopyrimidines with phosphodiesterase-v inhibiting action” (Merck Patent Gesellschaft mit beschraenkter Haftung, priority 1998, dated 2002).

| Compound | melting point |
| --- | --- |
| COC(=O)c1ccc(-c2nc(NCc3ccc(OC)c(Cl)c3)c3c(n2)sc2ccccc23)cc1 [Example 3, methyl 4-[4-(3-chloro-4-methoxybenzylamino)-[1]benzothieno[2,3-d]pyrimidin-2-yl]benzoate] | 203 to 204 °C |
| COc1ccc(CNc2nc(CCC(=O)O)nc3sc4ccccc4c23)cc1Cl [Example 2, 3-[4-(3-chloro-4-methoxybenzylamino)benzothieno[2,3-d]pyrimidin-2-yl]propionic acid] | 218 °C |
